Experimental data: patent publication US20080293795A1, “COMBINATION THERAPY WITH PARP INHIBITORS” (ABBOTT LABORATORIES, priority 2006, published 2008)

Biological target: T1, Recombinant Human Poly(ADP-Ribose) Polymerase (PARP) (Homo sapiens, UniProt P09874)
T1 construct: purchased Trevigen, Gaithersburg, Md; host or cells: E. coli
Test: PARP1 inhibition assay ([3H]-NAD+, biotinylated histone H1, FlashPlate/SPA)
Type: biochemical
Settings: from inhibition curves at various substrate concentrations
Method: Nicotinamide[2,5′,8-3H]adenine dinucleotide and strepavidin SPA beads were purchased from Amersham Biosiences (UK) Recombinant Human Poly(ADP-Ribose) Polymerase (PARP) purified from E. coli and 6-Biotin-17-NAD^+, were purchase from Trevigen, Gaithersburg, Md. NAD^+, Histone, aminobenzamide, 3-amino benzamide and Calf Thymus DNA (dcDNA) were purchased from Sigma, St. Louis, Mo. […] Biotinylated histone H1 was prepared by treating the protein with Sulfo-NHS-LC-Biotin from Pierce Rockford, Ill. […] Streptavidin coated (FlashPlate Plus) microplates were purchased from Perkin Elmer, Boston, Mass.
PARP1 assay was conducted in PARP assay buffer containing 50 mM Tris pH 8.0, 1 mM DTT, 4 mM MgCl2. […] 170 μl of the stopped reaction mixtures were transferred to streptavidin Flash Plates, incubated for 1 hr, and counted using a TopCount microplate scintillation counter.

T1 sequence (P09874 whole entry): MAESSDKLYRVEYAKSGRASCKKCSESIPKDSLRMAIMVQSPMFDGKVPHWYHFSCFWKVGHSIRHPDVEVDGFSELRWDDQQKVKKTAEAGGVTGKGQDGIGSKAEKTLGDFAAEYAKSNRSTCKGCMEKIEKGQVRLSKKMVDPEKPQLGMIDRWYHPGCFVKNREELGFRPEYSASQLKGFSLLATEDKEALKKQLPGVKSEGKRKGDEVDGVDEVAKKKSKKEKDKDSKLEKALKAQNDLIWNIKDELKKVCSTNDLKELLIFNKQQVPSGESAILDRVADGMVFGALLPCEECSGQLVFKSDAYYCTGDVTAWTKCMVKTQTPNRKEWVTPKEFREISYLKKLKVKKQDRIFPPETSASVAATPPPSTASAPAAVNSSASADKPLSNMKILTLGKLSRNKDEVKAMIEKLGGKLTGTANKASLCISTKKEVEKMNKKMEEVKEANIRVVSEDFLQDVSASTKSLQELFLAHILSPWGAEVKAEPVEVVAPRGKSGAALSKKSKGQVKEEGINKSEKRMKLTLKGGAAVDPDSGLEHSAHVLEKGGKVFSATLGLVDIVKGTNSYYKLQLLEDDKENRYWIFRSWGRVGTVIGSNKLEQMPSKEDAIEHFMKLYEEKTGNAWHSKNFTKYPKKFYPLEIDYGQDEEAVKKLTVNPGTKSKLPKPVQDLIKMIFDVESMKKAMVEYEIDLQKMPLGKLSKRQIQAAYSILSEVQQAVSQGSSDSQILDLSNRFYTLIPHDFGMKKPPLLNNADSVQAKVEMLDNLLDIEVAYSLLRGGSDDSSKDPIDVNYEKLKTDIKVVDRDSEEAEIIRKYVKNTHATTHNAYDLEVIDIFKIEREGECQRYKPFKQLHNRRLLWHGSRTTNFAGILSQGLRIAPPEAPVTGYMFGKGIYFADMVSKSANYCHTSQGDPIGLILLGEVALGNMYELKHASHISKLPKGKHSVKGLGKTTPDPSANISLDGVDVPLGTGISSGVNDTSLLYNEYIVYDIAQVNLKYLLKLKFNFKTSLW

Compound	Ki
CCCN1CCC(C)(c2nc3c(C(N)=O)cccc3[nH]2)CC1 [2-(4-methyl-1-propylpiperidin-4-yl)-1H-benzimidazole-4-carboxamide]	13.5 nM
CCCN1CCC[C@@H]1c1nc2c(C(N)=O)cccc2[nH]1 [2-[(2R)-1-propylpyrrolidin-2-yl]-1H-benzimidazole-4-carboxamide]	146 nM
CC(C)N1CCC[C@@H]1c1nc2cccc(C(N)=O)c2[nH]1 [2-[(2R)-1-isopropylpyrrolidin-2-yl]-1H-benzimidazole-4-carboxamide]	12.8 nM
CCCN1CCC[C@H]1c1nc2c(C(N)=O)cccc2[nH]1 [2-[(2S)-1-propylpyrrolidin-2-yl]-1H-benzimidazole-4-carboxamide]	129 nM
CC(CCc1ccccc1)N1CCC(C)(c2nc3c(C(N)=O)cccc3[nH]2)C1 (stereo not shown) [2-[3-methyl-1-(1-methyl-3-phenylpropyl)pyrrolidin-3-yl]-1H-benzimidazole-4-carboxamide]	12 nM
CC1(c2nc3c(C(N)=O)cccc3[nH]2)CCCN(C2CCCCC2)CC1 (stereo not shown) [2-(1-cyclohexyl-4-methylazepan-4-yl)-1H-benzimidazole-4-carboxamide]	11.9 nM
NC(=O)c1cccc2[nH]c(C3CN(C4CCCCC4)C3)nc12 [2-(1-cyclohexylazetidin-3-yl)-1H-benzimidazole-4-carboxamide]	16 nM
CC1(c2nc3c(C(N)=O)cccc3[nH]2)CCN(C2CCC2)CC1 [2-(1-cyclobutyl-4-methylpiperidin-4-yl)-1H-benzimidazole-4-carboxamide]	9.2 nM
NC(=O)c1cccc2[nH]c(C3CCN(C4CCOCC4)C3)nc12 (stereo not shown) [2-(1-tetrahydro-2H-pyran-4-ylpyrrolidin-3-yl)-1H-benzimidazole-4-carboxamide]	8.2 nM
CC1(c2nc3c(C(N)=O)cccc3[nH]2)CCN1C1CCC1 (stereo not shown) [2-(1-cyclobutyl-2-methylazetidin-2-yl)-1H-benzimidazole-4-carboxamide]	33.3 nM
CC(C)N1CCC[C@H]1c1nc2c(C(N)=O)cccc2[nH]1 [2-[(2S)-1-isopropylpyrrolidin-2-yl]-1H-benzimidazole-4-carboxamide]	19.3 nM
NC(=O)c1cccc2[nH]c(C3CCN(Cc4ccncc4)C3)nc12 (stereo not shown) [2-[1-(pyridin-4-ylmethyl)pyrrolidin-3-yl]-1H-benzimidazole-4-carboxamide]	14.2 nM
CC(C)N1CCC1c1nc2c(C(N)=O)cccc2[nH]1 (stereo not shown) [2-(1-isopropylazetidin-2-yl)-1H-benzimidazole-4-carboxamide]	118 nM
CC(C)CN1CC(c2nc3c(C(N)=O)cccc3[nH]2)C1 [2-(1-isobutylazetidin-3-yl)-1H-benzimidazole-4-carboxamide]	14.4 nM
NC(=O)c1cccc2[nH]c(C3CN(C4CCOCC4)C3)nc12 [2-(1-tetrahydro-2H-pyran-4-ylazetidin-3-yl)-1H-benzimidazole-4-carboxamide]	45.6 nM
CCN1CCC[C@H]1c1nc2c(C(N)=O)cccc2[nH]1 [2-[(2S)-1-ethylpyrrolidin-2-yl]-1H-benzimidazole-4-carboxamide]	49 nM
NC(=O)c1cccc2[nH]c([C@@H]3CCCN3C3CCC3)nc12 [2-[(2S)-1-cyclobutylpyrrolidin-2-yl]-1H-benzimidazole-4-carboxamide]	338 nM
CN(C)S(=O)(=O)N1CCC(C)(c2nc3c(C(N)=O)cccc3[nH]2)CC1 [2-{1-[(dimethylamino)sulfonyl]-4-methylpiperidin-4-yl}-1H-benzimidazole-4-carboxamide]	8.8 nM
CN(C)S(=O)(=O)N1CCC(c2nc3c(C(N)=O)cccc3[nH]2)CC1 [2-{1-[(dimethylamino)sulfonyl]piperidin-4-yl}-1H-benzimidazole-4-carboxamide]	31.1 nM
CCCN1CCCC1(C)c1nc2c(C(N)=O)cccc2[nH]1 (stereo not shown) [2-(2-methyl-1-propylpyrrolidin-2-yl)-1H-benzimidazole-4-carboxamide]	18.7 nM
NC(=O)c1cccc2[nH]c(C3CN(C4CCC4)C3)nc12 [2-(1-cyclobutylazetidin-3-yl)-1H-benzimidazole-4-carboxamide]	16.4 nM
CCCN1CC(c2nc3c(C(N)=O)cccc3[nH]2)C1 [2-(1-propylazetidin-3-yl)-1H-benzimidazole-4-carboxamide]	14.1 nM
NC(=O)c1cccc2[nH]c(C3CN(CC4CC4)C3)nc12 [2-[1-(cyclopropylmethyl)azetidin-3-yl]-1H-benzimidazole-4-carboxamide]	19 nM
NC(=O)c1cccc2[nH]c(C3CCN3C3CCC3)nc12 (stereo not shown) [2-(1-cyclobutylazetidin-2-yl)-1H-benzimidazole-4-carboxamide]	80 nM
CC1(c2nc3c(C(N)=O)cccc3[nH]2)CCN(Cc2ccncc2)C1 (stereo not shown) [2-[3-methyl-1-(pyridin-4-ylmethyl)pyrrolidin-3-yl]-1H-benzimidazole-4-carboxamide]	8.9 nM
CC(CCc1ccccc1)N1CCC(c2nc3c(C(N)=O)cccc3[nH]2)C1 (stereo not shown) [2-[1-(1-methyl-3-phenylpropyl)pyrrolidin-3-yl]-1H-benzimidazole-4-carboxamide]	13.2 nM
CN(C)S(=O)(=O)N1CC(c2nc3c(C(N)=O)cccc3[nH]2)C1 [2-{1-[(dimethylamino)sulfonyl]azetidin-3-yl}-1H-benzimidazole-4-carboxamide]	16 nM
NC(=O)c1cccc2[nH]c(C3CCN3C3CCCCC3)nc12 (stereo not shown) [2-(1-cyclohexylazetidin-2-yl)-1H-benzimidazole-4-carboxamide]	245 nM
NC(=O)c1cccc2[nH]c([C@H]3CCCN3C3CCC3)nc12 [2-[(2R)-1-cyclobutylpyrrolidin-2-yl]-1H-benzimidazole-4-carboxamide]	142 nM

More lines, in order of falling Ki, values ahead:

Ki	Compound
8.1 nM	CCCN1CCC(c2nc3c(C(N)=O)cccc3[nH]2)C1 (stereo not shown) [2-(1-propylpyrrolidin-3-yl)-1H-benzimidazole-4-carboxamide]
8 nM	CC1(c2nc3c(C(N)=O)cccc3[nH]2)CN(CC2CC2)C1 [2-[1-(cyclopropylmethyl)-3-methylazetidin-3-yl]-1H-benzimidazole-4-carboxamide]
7.4 nM	CC(C)CN1CCC(c2nc3c(C(N)=O)cccc3[nH]2)C1 (stereo not shown) [2-(1-isobutylpyrrolidin-3-yl)-1H-benzimidazole-4-carboxamide]
7.2 nM	CC1(c2nc3c(C(N)=O)cccc3[nH]2)CCN(C2CCOCC2)C1 (stereo not shown) [2-(3-methyl-1-tetrahydro-2H-pyran-4-ylpyrrolidin-3-yl)-1H-benzimidazole-4-carboxamide]
7 nM	CN(C)S(=O)(=O)N1CC(C)(c2nc3c(C(N)=O)cccc3[nH]2)C1 [2-{1-[(dimethylamino)sulfonyl]-3-methylazetidin-3-yl}-1H-benzimidazole-4-carboxamide]
7 nM	NC(=O)c1cccc2[nH]c(C3CCN(C4CCCCC4)C3)nc12 (stereo not shown) [2-(1-cyclohexylpyrrolidin-3-yl)-1H-benzimidazole-4-carboxamide]
6.9 nM	CCCN1CC(C)(c2nc3c(C(N)=O)cccc3[nH]2)C1 [2-(3-methyl-1-propylazetidin-3-yl)-1H-benzimidazole-4-carboxamide]
6.8 nM	NC(=O)c1cccc2[nH]c(C3CCN(C4CCC4)C3)nc12 (stereo not shown) [2-(1-cyclobutylpyrrolidin-3-yl)-1H-benzimidazole-4-carboxamide]
6.3 nM	NC(=O)c1cccc2[nH]c(C3CCN(C4CCC4)CC3)nc12 [2-(1-cyclobutylpiperidin-4-yl)-1H-benzimidazole-4-carboxamide]
6.1 nM	CC1(c2nc3c(C(N)=O)cccc3[nH]2)CN(C2CCC2)C1 [2-(1-cyclobutyl-3-methylazetidin-3-yl)-1H-benzimidazole-4-carboxamide]
6 nM	CCN1CCCC1(C)c1nc2c(C(N)=O)cccc2[nH]1 (stereo not shown) [2-(1-ethyl-2-methylpyrrolidin-2-yl)-1H-benzimidazole-4-carboxamide]
6 nM	CC(C)N1CCC(c2nc3c(C(N)=O)cccc3[nH]2)CC1 [2-(1-isopropylpiperidin-4-yl)-1H-benzimidazole-4-carboxamide]
5.8 nM	CC1(c2nc3c(C(N)=O)cccc3[nH]2)CCN(C2CCCCC2)C1 (stereo not shown) [2-(1-cyclohexyl-3-methylpyrrolidin-3-yl)-1H-benzimidazole-4-carboxamide]
5.6 nM	CC(C)CN1CC(C)(c2nc3c(C(N)=O)cccc3[nH]2)C1 [2-(1-isobutyl-3-methylazetidin-3-yl)-1H-benzimidazole-4-carboxamide]
5.6 nM	CC1(c2nc3c(C(N)=O)cccc3[nH]2)CN(C2CCCCC2)C1 [2-(1-cyclohexyl-3-methylazetidin-3-yl)-1H-benzimidazole-4-carboxamide]
5.2 nM	NC(=O)c1cccc2[nH]c(C3CCN(CC4CC4)C3)nc12 (stereo not shown) [2-[1-(cyclopropylmethyl)pyrrolidin-3-yl]-1H-benzimidazole-4-carboxamide]
5 nM	CC1(c2nc3c(C(N)=O)cccc3[nH]2)CCN(CC2CC2)C1 (stereo not shown) [2-[1-(cyclopropylmethyl)-3-methylpyrrolidin-3-yl]-1H-benzimidazole-4-carboxamide]
4.8 nM	NC(=O)c1cccc2[nH]c(C3CCCN(C4CCCCC4)CC3)nc12 (stereo not shown) [2-(1-cyclohexylazepan-4-yl)-1H-benzimidazole-4-carboxamide]
4.2 nM	CCCN1CCC(C)(c2nc3c(C(N)=O)cccc3[nH]2)C1 (stereo not shown) [2-(3-methyl-1-propylpyrrolidin-3-yl)-1H-benzimidazole-4-carboxamide]
4 nM	CC1(c2nc3c(C(N)=O)cccc3[nH]2)CN(C2CCCC2)C1 [2-(1-cyclopentyl-3-methylazetidin-3-yl)-1H-benzimidazole-4-carboxamide]
4 nM	CC1(c2nc3c(C(N)=O)cccc3[nH]2)CCN(C2CCC2)C1 (stereo not shown) [2-(1-cyclobutyl-3-methylpyrrolidin-3-yl)-1H-benzimidazole-4-carboxamide]
3.8 nM	CC(C)CN1CCC(C)(c2nc3c(C(N)=O)cccc3[nH]2)C1 (stereo not shown) [2-(1-isobutyl-3-methylpyrrolidin-3-yl)-1H-benzimidazole-4-carboxamide]
3.4 nM	CC1(c2nc3c(C(N)=O)cccc3[nH]2)CCN(C2CCCC2)C1 (stereo not shown) [2-(1-cyclopentyl-3-methylpyrrolidin-3-yl)-1H-benzimidazole-4-carboxamide]
